Experimental findings from ChEMBL document CHEMBL5344475, “Indole-containing pharmaceuticals: targets, pharmacological activities, and SAR studies” (RSC Med Chem, 2024) are described below.

Data set [1] is described as follows: AUC in Sprague-Dawley rat at 10 mg/kg, iv by LC-MS/MS analysis. Details: dose 10 mg/kg, route iv. To be noted: in vivo. It is filed as ADME, organism-based.
Data set [2] can be described thus: Volume of distribution in Wistar rat. It is filed as ADME. As to conditions: in vivo.
Data set [3] in a line: Tmax in human plasma. It is filed as ADME, cell-free.
Data set [4] in a line: Inhibition of tyrosine kinase (unknown origin). The arrangement: species or system Homo sapiens.
The nature of data set [5]: Volume of distribution at steady state in iv dosed human. As to conditions: in vivo, read-out: Vdss.
Data set [6] is described as follows: Plasma protein binding in human assessed as unbound fraction. The data set is classed as ADME, cell-free.
A short description of data set [7]: Half life in human plasma. It is filed as ADME, cell-free.
For data set [8], the target named is T1, DNA polymerase alpha catalytic subunit (Homo sapiens, UniProt P09884).
T1 sequence (P09884 whole entry): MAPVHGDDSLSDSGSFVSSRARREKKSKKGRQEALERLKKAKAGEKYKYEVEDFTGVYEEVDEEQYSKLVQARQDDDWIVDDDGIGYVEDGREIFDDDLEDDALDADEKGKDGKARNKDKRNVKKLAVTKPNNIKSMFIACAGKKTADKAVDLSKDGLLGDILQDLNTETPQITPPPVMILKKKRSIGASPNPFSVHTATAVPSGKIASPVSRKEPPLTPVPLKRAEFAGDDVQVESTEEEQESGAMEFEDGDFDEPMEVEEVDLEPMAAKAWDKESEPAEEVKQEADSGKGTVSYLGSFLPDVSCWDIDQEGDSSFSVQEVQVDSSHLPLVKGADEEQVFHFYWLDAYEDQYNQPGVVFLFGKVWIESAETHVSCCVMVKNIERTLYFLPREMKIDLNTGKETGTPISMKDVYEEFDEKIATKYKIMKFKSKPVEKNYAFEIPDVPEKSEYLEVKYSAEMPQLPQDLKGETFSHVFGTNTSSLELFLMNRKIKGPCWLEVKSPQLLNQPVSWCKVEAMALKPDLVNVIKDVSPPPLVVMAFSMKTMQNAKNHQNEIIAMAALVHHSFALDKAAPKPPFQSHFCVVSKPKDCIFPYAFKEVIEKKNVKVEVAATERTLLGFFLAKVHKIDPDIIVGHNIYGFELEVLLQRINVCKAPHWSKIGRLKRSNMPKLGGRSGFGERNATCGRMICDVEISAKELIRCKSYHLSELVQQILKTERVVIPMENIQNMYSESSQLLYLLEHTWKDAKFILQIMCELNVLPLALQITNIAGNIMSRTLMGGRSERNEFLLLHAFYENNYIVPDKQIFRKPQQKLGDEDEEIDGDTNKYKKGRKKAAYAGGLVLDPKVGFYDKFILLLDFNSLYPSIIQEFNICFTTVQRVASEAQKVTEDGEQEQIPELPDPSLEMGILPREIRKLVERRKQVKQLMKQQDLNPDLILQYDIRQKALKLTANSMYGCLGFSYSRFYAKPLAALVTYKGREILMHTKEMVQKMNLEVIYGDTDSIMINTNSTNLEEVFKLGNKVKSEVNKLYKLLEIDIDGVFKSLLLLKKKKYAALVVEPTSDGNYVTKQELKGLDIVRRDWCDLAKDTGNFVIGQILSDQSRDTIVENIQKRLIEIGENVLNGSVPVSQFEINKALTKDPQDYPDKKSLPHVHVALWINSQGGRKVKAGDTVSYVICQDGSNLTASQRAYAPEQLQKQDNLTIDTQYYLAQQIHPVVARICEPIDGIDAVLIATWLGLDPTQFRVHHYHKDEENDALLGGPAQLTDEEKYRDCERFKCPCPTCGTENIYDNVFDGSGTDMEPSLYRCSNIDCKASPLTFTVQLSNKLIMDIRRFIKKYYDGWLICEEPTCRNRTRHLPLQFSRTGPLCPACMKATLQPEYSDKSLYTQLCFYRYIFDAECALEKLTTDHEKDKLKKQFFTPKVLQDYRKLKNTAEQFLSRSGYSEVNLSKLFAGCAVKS
Briefly: Inhibition of DNA polymerase alpha (unknown origin).

A short description of data set [9]: Apparent volume of distribution in Sprague-Dawley rat at 1 mg/kg, iv. It is filed as ADME, organism-based. To be noted: in vivo.
Data set [10] is described as follows: Effective half life in human. As to conditions: in vivo, read-out: t1/2eff (converted).

As to `Cc1c(-c2ccc(O)cc2)n(Cc2ccc(OCCN3CCCCCC3)cc2)c2ccc(O)cc12` [BAZEDOXIFENE], the AUC (in general, concentration integrated over time) in data set [1] turned out to be 71 ng·h/mL. In addition, in data set [2], the Vd came out at 14.7 L/kg. Moreover, the Tmax – broadly, the time at which the peak concentration occurs – in data set [3] amounted to 2.5 h.
Take `C=CC(=O)Nc1cc(Nc2nccc(-c3cn(C)c4ccccc34)n2)c(OC)cc1N(C)CCN(C)C` [OSIMERTINIB]: the 50% inhibitory concentration (IC50) (as a rule, the concentration that gives 50% inhibition) in data set [4] was determined as 27.6 nM. Besides, in data set [5], the Vd was 918 L. Moreover, the Fu in data set [6] is 5%. This compound also had a half-life in data set [7] of 48 h.
Regarding `CNCc1ccc(-c2[nH]c3cc(F)cc4c3c2CCNC4=O)cc1` [RUCAPARIB], the half-life in data set [7] was 17 h. In addition, in [8], the midpoint of inhibition, the IC50, lay at 0.4 nM.
As for `CC(C)(CO)c1cc2cc(NC(=O)C3(c4ccc5c(c4)OC(F)(F)O5)CC3)c(F)cc2n1C[C@@H](O)CO` [TEZACAFTOR], in data set [9], the Vd/F – broadly, the apparent distribution volume after extravascular dosing – came out at 82 L. Also, the half-life in data set [10] is 25.1 h.
